Experimental data taken from patent publication US20250346866A1, “CELL AGGREGATE DISSOCIATING AGENT” (AJINOMOTO CO., INC., priority 2023, published 2025).

What was measured:
Type in all cases: cell-based
[1] = tested on: human iPS cells (1383D2 strain); assay: Suspension culture after passage: proliferation, viable cell density and aggregate formation; details: for proliferation in 4 days after passage (viable cell density): seeded 1.5×10^5 cells/mL, 4 days suspension culture, FIG. 6
Experimental: A new multi-well plate containing AK02N containing 10 μM Y-27632 was prepared, and the cells obtained in (4), (5), and (6) were respectively seeded at a density of 1.5×10^5 cells/mL. The cells were cultured in a CO2 incubator while stirring with an orbital shaker. One and three days after seeding, 50 vol % each of the medium was exchanged with AK02N, and the suspension culture was continued until four days later.
To accurately measure the number of viable cells, after four days of culture, under the same conditions, the following operation, including centrifugation, was performed. The entire volume of each culture medium was collected in a 15-mL conical tube, and the supernatant was removed by centrifugation (200 G, 5 min, 25° C.). Accutase™ (Nacalai Tesque Inc., 12679-54) (0.5 mL) was added and the mixture was heated at 37° C. for 15 min, after which the cell aggregates were sufficiently brought to a single-cell state by pipetting. The cells attached to the wall of the conical tube were sufficiently washed with AK02N, and the supernatant was removed by centrifugation (200 G, 5 min, 25° C.). The cells were resuspended in AK02N containing 10 μM Y-27632, and the viable cell density was measured using Vi-CELL XR.
The viable cell density in the culture medium was calculated from the Vi-CELL measured values in Example 1 (4), (5), and (6). A great difference in the viable cell density was not observed depending on the passage method. The viable cell density in the culture medium was calculated from the Vi-CELL measured values in Example 1 (7). The cells passaged using WK11 proliferated 3.4-fold in 4 days, whereas the cells passaged using EDTA without centrifugation removal proliferated 0.03-fold. Even when the centrifugation step was performed, the value was as low as 0.4-fold.

[2] = tested on: human iPS cells (1383D2 strain) cell aggregates; assay: Dissociation of human iPS cell aggregates by stirring with dissociation agent (micrographs, Vi-CELL viable cell density); details: culture medium with 10 μM Y-27632; WK11 stirred 17 min, EDTA 2.5 mM stirred 14 min; FIG. 2, FIG. 3
Experimental: The iPS cells maintenance cultured in (2) were seeded at a concentration of 1.5×10^5 cells/mL in a multi-well plate with StemFit (registered trademark) AK03N (Ajinomoto Co., Inc.) containing 10 μM Y-27632 added thereto, and cultured with stirring at a rotation speed of 70 rpm using an orbital shaker MaxQ™ 2000 CO2 Plus (Thermo Fisher Scientific) placed in a CO2 incubator at 37° C. One and three days after seeding, 50 vol % each of the medium was exchanged with AK02N, and the culture was continued until four days later to obtain cell aggregates.
To a culture medium containing the cell aggregates prepared in (3) were added Y-27632 (final concentration 10 μM) and WK11 pre-treated in (1), and the mixture was stirred for 17 min using an orbital shaker. Thereafter, the cell aggregates were sufficiently brought to a single-cell state by pipetting, and the viable cell density was measured using a live/dead cell autoanalyzer Vi-CELL XR (BECKMAN COULTER). […]
To a culture medium containing the cell aggregates prepared in (3) were added Y-27632 (final concentration 10 μM) and EDTA (final concentration 2.5 mM), and the mixture was stirred for 14 min using an orbital shaker. […] The viable cell density of the obtained cell suspension was measured using Vi-CELL XR.
The viable cell density in the culture medium was calculated from the Vi-CELL measured values in Example 1 (4), (5), and (6). […]

[3] = tested on: human iPS cells (1383D2 strain), CD30 expression; assay: Undifferentiated marker (CD30) positive rate by flow cytometry; details: FIG. 7
Experimental: The undifferentiated rate was evaluated for cells 4 days after suspension culture seeding, according to the following procedure.
1×10^5 cells were quantitatively collected, centrifuged (400 g, 5 min), and the supernatant was removed. 20 μL of PE Mouse Anti-Human CD30 (BD Pharmingen™) or PE Mouse IgG1, κ Isotype Control (BD Pharmingen™) diluted 5-fold with buffer was added and the cells were left standing for 20 min at 4° C. in the dark. After washing several times with buffer, the cells were analyzed using an Attune NXT Flow Cytometer (Thermo Fisher Scientific). […] However, measurement was not performed under conditions without a step of removing EDTA by centrifugation, because cells were not obtained.

O=C(O)CN(CCN(CC(=O)O)CC(=O)O)CC(=O)O [EDTA, ethylenediaminetetraacetic acid]
proliferation in 4 days after passage (viable cell density) ([1]; centrifugation step performed to remove the agent): 0.4 fold
proliferation in 4 days after passage (viable cell density) ([1]; no centrifugation removal of the dissociation agent): 0.03 fold
proliferation of passaged cells (micrograph) ([1]; suspension cultured 4 days after passage, FIG. 4): proliferated hardly
aggregate formation of passaged cells (micrograph) ([1]; suspension cultured 4 days after passage, without a step of removing EDTA by centrifugation, FIG. 4): no aggregates were formed
state of cell aggregates after stirring (micrograph) [2]: fragmented and the intercellular binding was weakened
undifferentiated marker (CD30) positive rate ([3]; Passage 1, 4 days after suspension culture seeding): maintained high values
undifferentiated marker (CD30) positive rate ([3]; Passage 2, 4 days after suspension culture seeding, EDTA only with centrifugation removal): maintained even after culture
